Results as given in patent publication US8445677B2, “Substituted pyrimidyl guanidine derivatives having anticancer activity” (University of Southern California, priority 2008, dated 2013).

Tests used:
SkBr-3 = assay: MTT cytotoxicity assay (Example 2); format: cell-based, human
Source text: (§1) Human breast cancer cell lines MDA-MB-435 and SkBr-3 were purchased from the American Type Culture Collection (Manassas, Va.). The HCT116 P53+/+ and HCT116 P53−/− cell lines were kindly provided by Dr. Bert Vogelstein (Johns Hopkins Medical Institutions, Baltimore, Md.). The HEY human ovarian carcinoma cell line was kindly provided by Dr. Louis Dubeau (University of Southern California Norris Cancer Center). Cells were maintained as monolayer cultures in media supplemented with 10% fetal bovine serum (Gemini-Bioproducts, Woodland, Calif.) and 2 mmo/lL-glutamine at 37° C. in a humidified atmosphere of 5% C02. To remove the adherent cells from the flask for passaging and counting, cells were washed with PBS without calcium or magnesium, incubated with a small volume of 0.25% trypsin-EDTA solution (Sigma-Aldrich, St. Louis, Mo.) for 5-10 min, and washed with culture medium and centrifuged. All experiments were performed using cells in exponential growth stage. Cells were routinely checked for mycoplasma contamination using a PCR-based assay (Stratagene, Cambridge, UK).
(§2) Stock solutions (10 mM) of all compounds were prepared in DMSO and stored at −20° C. Further dilutions were made fresh in cell-culture media just prior to cell treatment.
(§3) Cytotoxicity was assessed by a 3-(4,5-dimethylthiazol-2-yl)-2,5-diphenyltetrazolium bromide (MTT) assay as previously described.^23 Cells were seeded in 96-well plates and allowed to attach overnight. Cells were subsequently treated with continuous exposure to the corresponding drug for 72 h. An MTT solution (at a final concentration of 0.5 mg/ml) was added to each well, and cells were incubated for 4 h at 37° C. After removal of the medium, DMSO was added and the absorbance was read at 570 nm. All assays were performed in triplicate. The IC50 was determined for each drug from a plot of log (drug concentration) versus percentage of cells killed.

HEY [1] = assay: MTT cytotoxicity assay (Example 2); format: cell-based, human; details: 72 h
Source text: as §1, §2, §3

HCT116 p53+/+ [2] = assay: MTT cytotoxicity assay (Example 2); format: cell-based
Source text: as §1, §2, §3

HCT116 p53−/− [3] = assay: MTT cytotoxicity assay (Example 2); format: cell-based
Source text: as §1, §2, §3

MDA-MB-435 [4] = assay: MTT cytotoxicity assay (Example 2); format: cell-based; details: Homo sapiens, MDA-MB-435, 72 h
Source text: as §1, §2, §3

NIH3T3 = assay: MTT cytotoxicity assay (Example 1); format: cell-based, mouse; details: Mus musculus, NIH3T3, 72 h
Source text: (§4) Human breast cancer cells MDA-MB-435 were purchased from the American Type Culture Collection (Manassas, Va.). The HCT116 p53+/+ and HCT116 p53−/− cells were kindly provided by Dr. Bert Vogelstein (Johns Hopkins Medical Institutions, Baltimore, Md.). The human ovarian carcinoma cell line (HEY) which is naturally resistant to cisplatin, was kindly provided by Dr. Louis Dubeau, University of Southern California (USC) Norris Cancer Center, and NIH3T3 normal mouse fibroblast cells were kindly provided by Dr. Michael Press from USC. HEY and NIH3T3 cells were maintained as monolayer cultures in RPMI, HCT 116 cells in McCoy1s5A media and MDA-MB 435 in DMEM. Media were purchased from (Mediatech, Virginia) and supplemented with 10% fetal bovine serum (Gemini-Bioproducts, Woodland, Calif.), 2 mM L-glutamine and 5% Penicillin/streptomycin from Bio whittaker were purchased from VWR. Cells were incubated at 37° C. in a humidified atmosphere of 5% CO2. To remove the adherent cells from the flask for passaging and counting, cells were washed with PBS without calcium or magnesium, incubated with a small volume of 0.25% trypsin-EDTA solution (Sigma-Aldrich, St. Louis, Mo.) for 5-10 min, and washed with culture medium and centrifuged. All experiments were performed using cells at exponential growth stage. Cells were routinely checked for mycoplasma contamination using a PCR-based assay (Stratagene, Tex., USA).
(§5) Stock solutions (10 mM) of all compounds were prepared in DMSO and stored at −20° C. Further dilutions were made fresh in PBS or cell-culture media right before cell treatment.
(§6) Cytotoxicity was assessed by a 3-(4,s-dimethylthiazol-2-yl)-2,5-diphenyltetrazolium bromide (MTT) assay as previously described.^24 Briefly, cells were seeded in 96-well microtiter plates and allowed to attach overnight. Cells were subsequently treated with continuous exposure to the corresponding drug for 72 h. A MTT solution (at a final concentration of 0.5 mglml) was added to each well, and cells were incubated for 4 h at 37° C. After removal of the medium, DMSO was added and the absorbance was read at 570 nm. All assays were done in triplicate. The IC50 was then determined for each drug from a plot of log (drug concentration) versus percentage of cells killed.

HCT116 p53+/+ [5] = assay: MTT cytotoxicity assay (Example 1); format: cell-based; details: Homo sapiens, HCT-116, 72 h, MTT, 72 h
Source text: as §4, §5, §6

HCT116 p53−/− [6] = assay: MTT cytotoxicity assay (Example 1); format: cell-based; details: MTT, 72 h
Source text: as §4, §5, §6

MDA-MB-435 [7] = assay: MTT cytotoxicity assay (Example 1); format: cell-based, human
Source text: as §4, §5, §6

HEY [8] = assay: MTT cytotoxicity assay (Example 1); format: cell-based, human; details: 72 h
Source text: as §4, §5, §6

[9] = Homo sapiens, HCT-116, 72 h, MTT, 72 h, read-out: IC50 Hct116 p53+/+
[10] = MTT, 72 h, read-out: IC50 Hct116 p53+/+

| Compound | IC50 (SkBr-3; Homo sapiens, SK-BR-3, 72 h) [µM] | IC50 (HEY [1]; Homo sapiens) [µM] | IC50 (HCT116 p53+/+ [2]; [9]) [µM] | IC50 (HCT116 p53−/− [3]; Homo sapiens, HCT-116, 72 h) [µM] | IC50 (MDA-MB-435 [4]) [µM] | further results |
| --- | --- | --- | --- | --- | --- | --- |
| CCOc1ccc(NCc2ccc(O)c3ncccc23)cc1 [16-SMD58-11] | 3 ± 1.3 | 1.7 ± 0.1 | 2.3 ± 0.1 | 1.2 ± 0.2 | 4.9 ± 1.1 | – |
| CC(C)c1cc(=O)[nH]c(Nc2nc3ccccc3s2)n1 [8-SMD18-14] | > 10 | – | 4.5 ± 1.5 | 3.6 ± 1.8 | > 10 | – |
| Oc1ccc(Cc2ccc(O)c3ncccc23)c2cccnc12 [11-SMD58-1] | 1.4 ± 0.8 | 0.1 | 0.45 | 0.25 ± 0.5 | 2.8 ± 1.7 | IC50 (HCT116 p53+/+ [2]; Homo sapiens, HCT-116, p53+/+ cell line, read-out: IC50): < 1 µM |
| Cc1[nH]c(Nc2nc3ccccc3s2)nc(=O)c1Cc1ccccc1 [7-SMD18-8] | > 10 | – | 10 | > 10 | > 10 | IC50 (HCT116 p53+/+ [2]; [10]): > 10 µM; IC50 (HCT116 p53−/− [3]; 72 h): 7.2 µM |
| COc1cccc(NCc2ccc(O)c3ncccc23)c1 [19-SMD58-14] | 2.9 ± 0.3 | 1.9 | 1.3 ± 0.9 | 2.1 ± 0.1 | 5 ± 0.9 | – |
| Oc1ccc(CNc2ccc(C(F)(F)F)cc2)c2cccnc12 [18-SMD58-13] | 2.8 ± 0.5 | 1.2 ± 0.1 | 1.6 ± 0.1 | 2 ± 0.1 | 5.2 ± 0.4 | – |
| Oc1ccc(CN2CCCCC2)c2cccnc12 [20-SMD58-18] | 8.6 ± 1.4 | 5 ± 1.6 | 6.8 ± 1.3 | 6.5 ± 0.8 | 8.9 | – |
| Cc1cccnc1NCc1ccc(O)c2ncccc12 [23-SMD58-22] | 3.3 ± 0.7 | 2.8 | 1.4 ± 0.4 | 1.5 ± 0.1 | 3.1 ± 0.6 | – |
| Cc1cccc(NCc2ccc(O)c3ncccc23)n1 [24-SMD58-23] | 3.6 ± 0.5 | 2.3 ± 0.3 | 2.8 ± 0.1 | 1.6 ± 0.3 | 2.3 | – |
| CCOC(=O)Cc1cc(=O)nc(Nc2nc3ccccc3s2)[nH]1 [6-SMD18-1] | > 10 | – | 3.4 ± 0.2 | 4 ± 2 | 9.5 | – |
| Cc1cc(C)nc(NC(=N)Nc2cc(Oc3ccccc3)ccc2Cl)n1 [1-SMD6] | < 10 | – | – | 1.5 ± 0.1 | 8 ± 0.5 | IC50 (SkBr-3; 72 h): 5 ± 1 µM; IC50 (HEY [1]): 3.5 ± 1.6 µM; IC50 (HCT116 p53+/+ [2]; [10]): 1 ± 0.7 µM |
| COC(=O)/C=C1/N=C(Nc2nc3ccccc3s2)NC1=O [5-SMD18] | – | < 10 | < 10 | 6.5 | 7 ± 1.1 | IC50 (SkBr-3; 72 h): 2.5 ± 0.8 µM; IC50 (HEY [1]): 7.2 ± 0.2 µM; IC50 (HCT116 p53+/+ [2]; [10]): 7.2 ± 0.1 µM |
| CCN1CCN(Cc2ccc(O)c3ncccc23)CC1 [22-SMD58-20] | 4.1 ± 0.1 | 1.4 ± 0.2 | 2.1 | 2.1 ± 1.2 | 7.2 ± 0.4 | – |
| CCOC(=O)C1CCCN(Cc2ccc(O)c3ncccc23)C1 (stereo not drawn) [12-SMD58] | 2.2 ± 0.9 | 0.9 | 1.6 ± 0.4 | 2 ± 0.1 | 4.2 ± 1.2 | – |
| CN1CCN(Cc2ccc(O)c3ncccc23)CC1 [14-SMD58-7] | 3.2 ± 0.1 | 0.4 | 0.7 ± 0.4 | 1.7 ± 0.2 | 3.9 ± 0.1 | – |
| CCCOc1ccc(NC(=N)Nc2nc(C)cc(C)n2)cc1 [3-SMD6-5] | > 10 | > 10 | > 10 | 8.1 ± 0.6 | > 10 | – |
| Oc1ccc(CN2CCN(Cc3ccccc3)CC2)c2cccnc12 [15-SMD58-8] | 1.7 ± 0.7 | 1.8 ± 0.7 | 1.7 ± 0.7 | 2.5 ± 1.6 | 5.4 ± 0.7 | – |
| Oc1ccc(CN2CCN(c3ccccn3)CC2)c2cccnc12 [21-SMD58-19] | 3 ± 1 | 2.8 ± 0.6 | 2.6 ± 0.7 | 2.2 ± 0.1 | 2.7 | – |
| C/C(=N\C(=N)Nc1nc(C)c2cc(C)ccc2n1)c1ccccc1C(=O)O [Compound 33] | – | – | – | – | – | IC50 (NIH3T3): 14 µM; IC50 (HCT116 p53+/+ [5]): 18 µM; IC50 (HCT116 p53−/− [6]; Homo sapiens, HCT-116, 72 h): 5 µM; IC50 (MDA-MB-435 [7]; 72 h): 18 µM; IC50 (MDA-MB-435 [7]; Homo sapiens, MDA-MB-435, 72 h): 17 µM; IC50 (HEY [8]): 3 µM; IC50 (HEY [8]; Homo sapiens): 5 µM |
| CCCCn1c(=O)c(C(=O)Nc2nnc(C)s2)c(O)c2ccccc21 [Compound 30] | – | – | – | – | – | IC50 (NIH3T3): 5 µM; IC50 (HCT116 p53+/+ [5]): 6 ± 3 µM; IC50 (HCT116 p53−/− [6]; Homo sapiens, HCT-116, 72 h): 8 µM; IC50 (MDA-MB-435 [7]; Homo sapiens, MDA-MB-435, 72 h): 7 µM; IC50 (HEY [8]): 14 µM; IC50 (HEY [8]; Homo sapiens): 10 µM |
| COc1ccc(/C=N/Nc2nc3nonc3nc2Nc2ccc(F)cc2)cc1Br [Compound 4] | – | – | – | – | – | IC50 (NIH3T3): 6 µM; IC50 (HCT116 p53+/+ [5]): 4 µM; IC50 (HCT116 p53−/− [6]; Homo sapiens, HCT-116, 72 h): 3 µM; IC50 (HCT116 p53−/− [6]): 2 µM; IC50 (MDA-MB-435 [7]; Homo sapiens, MDA-MB-435, 72 h): 10 µM; IC50 (HEY [8]; Homo sapiens): 10 µM |
| C=CCn1c(=O)c(C(=O)Nc2nc(CC(=O)OCC)cs2)c(O)c2ccccc21 [Compound 31] | – | – | – | – | – | IC50 (NIH3T3): > 10 µM; IC50 (HCT116 p53+/+ [5]): 20 µM; IC50 (HCT116 p53−/− [6]; Homo sapiens, HCT-116, 72 h): > 10 µM; IC50 (MDA-MB-435 [7]; Homo sapiens, MDA-MB-435, 72 h): > 10 µM; IC50 (HEY [8]; Homo sapiens): > 10 µM |
| O=C(O)c1cc(-c2ccc(/C=N/Nc3nc4nonc4nc3Nc3ccccc3F)o2)ccc1Cl [Compound 14] | – | – | – | – | – | IC50 (NIH3T3): > 10 µM; IC50 (HCT116 p53+/+ [5]): > 10 µM; IC50 (HCT116 p53−/− [6]; Homo sapiens, HCT-116, 72 h): 7 µM; IC50 (MDA-MB-435 [7]; Homo sapiens, MDA-MB-435, 72 h): > 10 µM; IC50 (HEY [8]; Homo sapiens): 10 µM |
| CC(C)(C)c1cc(=O)[nH]c(Nc2nc3ccccc3s2)n1 [9-SMD18-15-BAS 125346 60] | > 10 | – | 9.9 | 9.9 | 7.5 | – |
